Test results as given in patent US11548875B2, “Inhibitor compounds for male contraception” (University of Washington, priority 2018, dated 2023).

Key:
ALDH1A2 [1] = target: T1, ALDH1A2 (Homo sapiens, UniProt O94788); test: Cell-based enzyme assay, retinoic acid production in ALDH1A2/H1299 cells
T1 sequence (O94788 1-518): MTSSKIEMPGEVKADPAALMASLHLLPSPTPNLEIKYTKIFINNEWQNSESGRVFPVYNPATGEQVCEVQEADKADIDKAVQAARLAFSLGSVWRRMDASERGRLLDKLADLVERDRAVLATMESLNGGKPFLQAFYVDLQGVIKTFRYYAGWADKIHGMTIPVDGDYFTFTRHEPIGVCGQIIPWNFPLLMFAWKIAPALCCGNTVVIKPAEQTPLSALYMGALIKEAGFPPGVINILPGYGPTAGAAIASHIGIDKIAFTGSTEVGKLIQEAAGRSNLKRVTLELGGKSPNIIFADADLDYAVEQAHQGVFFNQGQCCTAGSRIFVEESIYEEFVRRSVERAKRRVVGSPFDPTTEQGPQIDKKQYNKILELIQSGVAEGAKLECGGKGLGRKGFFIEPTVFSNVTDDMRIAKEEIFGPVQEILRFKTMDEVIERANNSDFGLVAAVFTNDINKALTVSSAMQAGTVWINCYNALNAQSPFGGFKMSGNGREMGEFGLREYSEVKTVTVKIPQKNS
In short: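 ALDH1A1- or ALDH1A2-stably transfected H1299 cells grown to confluence, then treated 20 h in serum-free RPMI-1640 with 2 μM all-trans-retinal plus varying inhibitor concentrations at 37 °C. Retinoic acid in cells and media quantified; inhibition from RA levels with vs without inhibitor.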

ALDH1A2 [2] = target: T1, ALDH1A2; test: Inhibitor screening using purified enzymes: ALDH1A2 activity, retinoic acid production by HPLC (5 uM initial screen, then IC50); type: biochemical; set-up: histidine-tag (C); made in house; host or cells: bacterial expression (pET28 vector, IPTG induction); settings: purified enzyme
In short: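 Purified His-tagged human enzymes in 10 mM HEPES pH 8.0, 150 mM KCl, 2 mM EDTA with 2 mM NAD, all-trans-retinal substrate; retinoic acid quantified by HPLC. ALDH1A2 initial screen: 1 μg enzyme, 5 μM retinal, 5 μM inhibitor, 15 min, 37° C; IC50 runs: 0.5 μg enzyme, 0.5 μg retinal, 5 min, 37° C.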

| Compound | EC50 (ALDH1A2 [1]) [µM] | IC50 (ALDH1A2 [2]) [µM] |
| --- | --- | --- |
| Cn1cccc1C(=O)N1CCN(c2ccc(NC(=O)C(Cl)Cl)c(N3CCCC3)c2)CC1 [Compound 367, 1-[4-(4-N-Dichloroacetyl-3-(pyrrolidin-1-yl)phenyl]piperazin-1-yl](1-methyl-1H-pyrrol-2-yl)methanone] | > 5 | 2.3 |
| Cn1cccc1C(=O)N1CCN(c2ccc(NC(=O)CCl)c(N3CCCC3)c2)CC1 [Compound 372, 1-[4-(4-N-Chloroacetyl-3-(pyrrolidin-1-yl)phenyl]piperazin-1-yl](1-methyl-1H-pyrrol-2-yl)methanone] | 0.7 | 3.6 |
| Cn1cccc1C(=O)N1CCN(c2ccc(-c3ccc([N+](=O)[O-])cc3)c(N3CCCCC3)c2)CC1 [Compound 373] | 0.88 | 2.13 |
